Results on 28 molecules are retold here after patent US7858621B2 (Amorepacific Corporation, priority 2006, dated 2010).

The structures appear in SMILES notation. pIC50: −log10 of the molar value.

This test deals with T1, vanilloid receptor (Rattus norvegicus, UniProt O35433).
T1 construct: DRG nerve cells from the primary culture of 2 days were equilibrated; endogenous in cells; host or cells: primary culture of dorsal root ganglion neurons from neonatal SD rats
T1 sequence (O35433 whole entry): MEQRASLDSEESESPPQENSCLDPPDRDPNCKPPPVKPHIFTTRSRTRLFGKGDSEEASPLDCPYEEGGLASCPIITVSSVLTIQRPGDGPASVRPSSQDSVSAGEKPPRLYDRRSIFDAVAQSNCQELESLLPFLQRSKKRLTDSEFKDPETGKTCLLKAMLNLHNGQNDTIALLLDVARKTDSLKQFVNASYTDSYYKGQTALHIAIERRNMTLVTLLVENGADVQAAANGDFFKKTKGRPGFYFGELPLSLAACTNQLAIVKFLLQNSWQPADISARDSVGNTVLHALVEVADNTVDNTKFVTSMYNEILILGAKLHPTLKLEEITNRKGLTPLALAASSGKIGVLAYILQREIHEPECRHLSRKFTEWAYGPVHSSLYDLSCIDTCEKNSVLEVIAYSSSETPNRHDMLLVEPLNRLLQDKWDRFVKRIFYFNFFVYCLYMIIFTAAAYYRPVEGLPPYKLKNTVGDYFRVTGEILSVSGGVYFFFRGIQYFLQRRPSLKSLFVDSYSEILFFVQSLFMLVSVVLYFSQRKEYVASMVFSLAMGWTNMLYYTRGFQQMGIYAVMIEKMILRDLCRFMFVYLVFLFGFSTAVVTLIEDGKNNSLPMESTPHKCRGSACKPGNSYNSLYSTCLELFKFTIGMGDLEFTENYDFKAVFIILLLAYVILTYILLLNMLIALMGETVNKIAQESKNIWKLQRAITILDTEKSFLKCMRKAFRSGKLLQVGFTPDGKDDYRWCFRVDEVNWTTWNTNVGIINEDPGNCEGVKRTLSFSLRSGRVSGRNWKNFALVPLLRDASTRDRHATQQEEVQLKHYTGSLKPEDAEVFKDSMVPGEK
As to the kind of experiment: 45Ca influx test in cultured neonatal rat DRG neurons, inhibition of capsaicin response. The format is cell-based. As to conditions: neonatal rat DRG neurons, capsaicin 0.5 μM, 45Ca influx; read-out: Antagonist Calcium Uptake Test (IC50). The procedure:
1) Separation of Spinal Dorsal Root Ganglia (DRG) in Newborn Rats and Primary Culture Thereof
Neonatal (2-3 day old or younger than 2-3 day old) SD rats were put in ice for 5 minutes to anesthetize and disinfected with 70% ethanol. […] The DRG were incubated sequentially at 37° C. for 30 mins in 200 U/ml collagenase and 2.5 mg/ml trypsin, separately. The ganglia were washed twice with DME/F12 medium supplemented with 10% horse serum, triturated through a fire-polished Pasteur pipette, filtered through Nitex 80 membrane to obtain single cell suspension and the suspension was washed once more. This was subjected to centrifugation, then resuspended in cell culture medium at certain level of cell density. As the cell culture medium, DME/F12 medium supplemented with 10% horse serum was diluted with identical medium conditioned by C6 glioma cells 2 days on a confluent monolayer (1:1), and NGF (Nerve Growth Factor) was added to adjust 200 ng/ml as final concentration. After the cells were grown 2 days in medium where cytosine arabinoside (Ara-C, 100 μM) was added to kill dividing nonneuronal cells, medium was changed to one without Ara-C. The resuspended cells were plated at a density of 1500-2000 neurons/well onto Terasaki plates previously coated with 10 μg/ml poly-D-ornithine.
2) ^45Ca Influx Experiments
DRG nerve cells from the primary culture of 2 days were equilibrated by washing 4 times with HEPES (10 mM, pH 7.4)-buffered Ca^2+, Mg^2+-free HBSS (H-HBSS). The solution in each well was removed from the individual well. Medium containing the test compound plus capsaicin (final concentration 0.5 μM) and ^45Ca (final concentration 10 μCi/ml) in H-HBSS was added to each well and incubated at room temperature for 10 mins. Terasaki plates were washed five times with H-HBSS and dried at room temperature. To each well, 0.3% SDS (10 μl) was added to elute ^45Ca. After the addition of scintillation cocktail of into each well, the amount of ^45Ca influx into neuron was measured by counting radioactivity.
In the case of `C=CS(=O)(=O)Nc1ccc(CNC(=O)/C=C/c2ccc(C(F)(F)F)nc2CC(C)C)cc1` [Example 269, N-(4-Ethenesulfonylamino-benzyl)-3-(2-isobutyl-6-trifluoromethyl-pyridin-3-yl)-acrylamide], the pIC50 (as a rule, −log10 of the IC50, conventionally taken in molar units) is 5.85. Consider `CCC(C)Cc1nc(C(F)(F)F)ccc1/C=C/C(=O)N[C@H](C)c1ccc(NS(C)(=O)=O)c(F)c1` (stereo partly drawn) [Example 211, (R)-3-[2-(2-Methyl-butyl)-6-trifluoromethyl-pyridin-3-yl]-N-[1-(3-fluoro-4-methanesulfonylamino-phenyl)-ethyl]-acrylamide], for which the pIC50 was 7.21. Regarding `CC(C)Sc1nc(C(F)(F)F)ccc1/C=C/C(=O)NCc1ccc(NS(C)(=O)=O)c(F)c1` [Example 178, N-(3-Fluoro-4-methanesulfonylamino-benzyl)-3-(2-isopropylthio-6-trifluoromethyl-pyridin-3-yl)-acrylamide], the negative logarithm of the IC50 (pIC50) is 6.04. Consider `C#Cc1cc(CNC(=O)/C=C/c2ccc(C(F)(F)F)nc2N(C)C)cc(F)c1NS(C)(=O)=O` [Example 94, 3-(2-Dimethylamino-6-trifluoromethyl-pyridin-3-yl)-N-(3-ethynyl-5-fluoro-4-methanesulfonylamino-benzyl)-acrylamide], for which the pIC50 is 6.23. Take `COc1nc(C(C)(C)C)ccc1/C=C/C(=O)NCc1ccc(NS(C)(=O)=O)c(F)c1` [Examples 9]: the negative-log IC50 (pIC50) was 6.40. `C#Cc1cc(CNC(=O)/C=C/c2ccc(C(F)(F)F)nc2-c2ccsc2)cc(F)c1NS(C)(=O)=O` [Example 119, N-(3-Ethynyl-5-fluoro-4-methanesulfonylamino-benzyl)-3-(2-thien-3-yl-6-trifluoromethyl-pyridin-3-yl)-acrylamide]: the pIC50 was 6.57. Consider `COc1cc(C(F)(F)F)c(/C=C/C(=O)NCc2ccc(NS(C)(=O)=O)c(F)c2)cn1` [Example 43, N-(3-Fluoro-4-methanesulfonylaminobenzyl)-3-(6-methoxy-4-trifluoromethylpyridin-3-yl)acrylamide], for which the pIC50 is 5.04. Regarding `CS(=O)(=O)Nc1ccc(CNC(=O)/C=C/c2ccc(Br)nc2)cc1F` [Example 20, 3-(6-Bromo-pyridin-3-yl)-N-(3-fluoro-4-methanesulfonylamino-benzyl)-acrylamide], the pIC50 was under 5.00. In the case of `CS(=O)(=O)Nc1c(F)cc(CNC(=O)/C=C/c2ccc(C(F)(F)F)nc2N2CCOCC2)cc1F` [Example 21, N-(3,5-Difluoro-4-methanesulfonylamino-benzyl)-3-(2-morpholin-4-yl-6-trifluoromethyl-pyridin-3-yl)-acrylamide], the negative-log IC50 (pIC50) was 5.96. Regarding `Cc1cc(CNC(=O)/C=C/c2ccc(C(F)(F)F)nc2N(C)c2ccccc2)ccc1NS(C)(=O)=O` [Example 167, N-(4-methanesulfonylamino-3-methyl-benzyl)-3-[2-(methyl-phenylamino)-6-trifluoromethyl-pyridin-3-yl]-acrylamide], the negative-log IC50 (pIC50) was 6.92. Turning to `C#Cc1cc(CNC(=O)/C=C/c2ccc(C(F)(F)F)nc2N2CCCC2)cc(F)c1NS(C)(=O)=O` [Example 62, N-(3-Ethynyl-5-fluoro-4-methanesulfonylamino-benzyl)-3-(2-pyrrolidin-1-yl-6-trifluoromethyl-pyridin-3-yl)-acrylamide], the negative logarithm of the IC50 (pIC50) is 6.59. Regarding `C#Cc1cc(CNC(=O)/C=C/c2ccc(C(F)(F)F)nc2NCCCC)cc(F)c1NS(C)(=O)=O` [Example 72, 3-(2-Butylamino-6-trifluoromethyl-pyridin-3-yl)-N-(3-ethynyl-5-fluoro-4-methanesulfonylamino-benzyl)-acrylamide], the negative logarithm of the IC50 (pIC50) was 6.80. Regarding `C#Cc1cc(CNC(=O)/C=C/c2ccc(C(F)(F)F)nc2Sc2ccccc2)cc(F)c1NS(C)(=O)=O` [Example 139, N-(3-Ethynyl-5-fluoro-4-methanesulfonylamino-benzyl)-3-(2-phenylthio-6-trifluoromethyl-pyridin-3-yl)-acrylamide], the negative logarithm of the IC50 (pIC50) was 6.47. In the case of `COCCOc1nc(C(F)(F)F)ccc1/C=C/C(=O)NCc1cc(F)c(NS(C)(=O)=O)c(C#N)c1` [Example 99, N-(3-Cyano-5-fluoro-4-methanesulfonylamino-benzyl)-3-[2-(2-methoxy-ethoxy)-6-trifluoromethyl-pyridin-3-yl]-acrylamide] it was 5.74. As to `CCCCOc1nc(C(F)(F)F)ccc1/C=C/C(=O)NCc1ccc(NS(C)(=O)=O)c(F)c1` [Example 63, 3-(2-Butoxy-6-trifluoromethyl-pyridin-3-yl)-N-(3-fluoro-4-methanesulfonylamino-benzyl)-acrylamide], the pIC50 is 6.25. `CC(C)Oc1nc(C(F)(F)F)ccc1/C=C/C(=O)NCc1ccc(NS(C)(=O)=O)c(F)c1` [Example 108, N-(3-Fluoro-4-methanesulfonylamino-benzyl)-3-(2-isopropoxy-6-trifluoromethyl-pyridin-3-yl)-acrylamide]: the pIC50 was 6.13. With `C[C@@H](NC(=O)/C=C/c1ccc(C(F)(F)F)nc1N(C)c1ccccc1)c1ccc(NS(C)(=O)=O)c(F)c1` [Example 165, (R)—N-[1-(3-Fluoro-4-methanesulfonylamino-phenyl)-ethyl]-3-[2-(methyl-phenylamino)-6-trifluoromethyl-pyridin-3-yl]-acrylamide], the pIC50 was 6.80. Regarding `CCC(C)Oc1nc(C(F)(F)F)ccc1/C=C/C(=O)NCc1ccc(NS(C)(=O)=O)c(C)c1` (stereo not shown) [Example 162, 3-(2-sec-Butoxy-6-trifluoromethyl-pyridin-3-yl)-N-(4-methanesulfonylamino-3-methyl-benzyl)-acrylamide], the pIC50 was 6.92. With `CCC/C(=C\C(=O)NCc1ccc(NS(C)(=O)=O)c(Cl)c1)c1ccc(C(F)(F)F)nc1CCC` [Example 272] the figure was 6.13.

As to `C#Cc1cc(CNC(=O)/C=C/c2ccc(C(F)(F)F)nc2OC(C)C)cc(F)c1NS(C)(=O)=O` [Example 70, 3-(2-Isopropoxy-6-trifluoromethyl-pyridin-3-yl)-N-(3-ethynyl-5-fluoro-4-methanesulfonylamino-benzyl)-acrylamide], the pIC50 is 6.89. Turning to `C#Cc1cc(CNC(=O)/C=C/c2ccc(C(F)(F)F)nc2OC2CCOC2)cc(F)c1NS(C)(=O)=O` (stereo not shown) [Example 79, 3-[2-(Tetrahydro-furan-3-yloxy)-6-trifluoromethyl-pyridin-3-yl]-N-(3-ethynyl-5-fluoro-4-methanesulfonylamino-benzyl)-acrylamide], the negative-log IC50 (pIC50) was 6.37. Take `CCC/C(=C/C(=O)N[C@H](C)c1cc(F)c(NS(C)(=O)=O)c(F)c1)c1ccc(C(F)(F)F)nc1CCC` [Example 277, (Z)-3-(2-Propyl-6-trifluoromethyl-pyridin-3-yl)-hex-2-enoic acid [1-(3,5-difluoro-4-methanesulfonylamino-phenyl)-ethyl]-amide]: the pIC50 is 6.49. As for `CS(=O)(=O)Nc1c(F)cc(CNC(=O)/C=C/c2ccc(C(F)(F)F)nc2N2CCOCC2)cc1C#N` [Example 103, N-(3-Cyano-5-fluoro-4-methanesulfonylamino-benzyl)-3-(2-morpholin-4-yl-6-trifluoromethyl-pyridin-3-yl)-acrylamide], the pIC50 is 5.23. Turning to `CCNc1nc(C(F)(F)F)ccc1/C=C/C(=O)NCc1cc(C)c(NS(C)(=O)=O)c(F)c1` [Example 258, 3-(2-Ethylamino-6-trifluoromethyl-pyridin-3-yl)-N-(3-fluoro-4-methanesulfonylamino-5-methyl-benzyl)-acrylamide], the negative-log IC50 (pIC50) is 7.68. `CS(=O)(=O)Nc1ccc(CNC(=O)/C=C/c2ccc(C(F)(F)F)nc2CCc2ccccc2)cc1F` [Example 141, N-(3-Fluoro-4-methanesulfonylamino-benzyl)-3-(2-phenethyl-6-trifluoromethyl-pyridin-3-yl)-acrylamide]: the pIC50 was 6.74. On to `COCC#Cc1nc(C(F)(F)F)ccc1/C=C/C(=O)NCc1ccc(NS(C)(=O)=O)c(F)c1` [Example 154, N-(3-Fluoro-4-methanesulfonylamino-benzyl)-3-[2-(3-methoxy-prop-1-ynyl)-6-trifluoromethyl-pyridin-3-yl]-acrylamide], for which the pIC50 was 5.68. Take `C#Cc1cc(CNC(=O)/C=C/c2ccc(C(F)(F)F)nc2Cl)cc(F)c1NS(C)(=O)=O` [Example 40, 3-(2-Chloro-6-trifluoromethyl-pyridin-3-yl)-N-(3-ethynyl-5-fluoro-4-methanesulfonylamino-benzyl)-acrylamide]: the pIC50 was 6.01. With `CCCCNc1nc(C(F)(F)F)ccc1/C=C/C(=O)NCc1cc(F)c(NS(C)(=O)=O)c(F)c1` [Example 202, N-(3,5-Difluoro-4-methanesulfonylamino-benzyl)-3-(2-butylamino-6-trifluoromethyl)-pyridin-3-yl-acrylamide] the figure was 7.46.
